Test results: PubChem BioAssay (NCI)
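Exposure lasted 48 hours, with cells grown in 96-well plates and compounds tested at five concentrations. TGI marks complete inhibition of growth.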

Experiments:
Test in all cases: NCI tumour cell line growth inhibition, 48 h
RXF 393 renal = system: RXF 393 renal
HCC-2998 colon = system: HCC-2998 colon
MOLT-4 leukemia = system: MOLT-4 leukemia
NCI-H23 lung = system: NCI-H23 lung
CAKI-1 renal = system: CAKI-1 renal
SK-MEL-2 melanoma = system: SK-MEL-2 melanoma
SNB-19 CNS = system: SNB-19 CNS
XF 498 CNS = system: XF 498 CNS
SW-620 colon = system: SW-620 colon
OVCAR-8 ovarian = system: OVCAR-8 ovarian
DLD-1 colon = system: DLD-1 colon
SNB-75 CNS = system: SNB-75 CNS
SK-MEL-5 melanoma = system: SK-MEL-5 melanoma
HCT-15 colon = system: HCT-15 colon
DMS 114 small cell lung = system: DMS 114 small cell lung
SN12C renal = system: SN12C renal
U251 CNS = system: U251 CNS
M14 melanoma = system: M14 melanoma
NCI-H522 lung = system: NCI-H522 lung
HOP-92 NSCLC = system: HOP-92 NSCLC
COLO 205 colon = system: COLO 205 colon
M19-MEL melanoma = system: M19-MEL melanoma
OVCAR-4 ovarian = system: OVCAR-4 ovarian
UACC-62 melanoma = system: UACC-62 melanoma
HOP-62 NSCLC = system: HOP-62 NSCLC
IGROV1 ovarian = system: IGROV1 ovarian
OVCAR-3 ovarian = system: OVCAR-3 ovarian
RXF-631 renal = system: RXF-631 renal
RPMI-8226 leukemia = system: RPMI-8226 leukemia
ACHN renal = system: ACHN renal
786-0 renal = system: 786-0 renal
DMS 273 small cell lung = system: DMS 273 small cell lung
SR leukemia = system: SR leukemia
NCI-H226 lung = system: NCI-H226 lung
OVCAR-5 ovarian = system: OVCAR-5 ovarian
HOP-18 NSCLC = system: HOP-18 NSCLC
SNB-78 CNS = system: SNB-78 CNS
A549 NSCLC = system: A549 NSCLC
EKVX NSCLC = system: EKVX NSCLC
SF-295 CNS = system: SF-295 CNS
HCT-116 colon = system: HCT-116 colon
HL-60(TB) leukemia = system: HL-60(TB) leukemia
HT29 colon = system: HT29 colon
K-562 leukemia = system: K-562 leukemia
SF-268 CNS = system: SF-268 CNS
A498 renal = system: A498 renal
KM12 colon = system: KM12 colon
UACC-257 melanoma = system: UACC-257 melanoma
LXFL 529 NSCLC = system: LXFL 529 NSCLC
KM20L2 colon = system: KM20L2 colon
MALME-3M melanoma = system: MALME-3M melanoma
SK-OV-3 ovarian = system: SK-OV-3 ovarian
TK-10 renal = system: TK-10 renal
UO-31 renal = system: UO-31 renal
SF-539 CNS = system: SF-539 CNS
NCI-H460 lung = system: NCI-H460 lung
MDA-N = system: MDA-N
NCI/ADR-RES ovarian = system: NCI/ADR-RES ovarian
PC-3 prostate = system: PC-3 prostate
DU-145 prostate = system: DU-145 prostate
MCF7 breast = system: MCF7 breast
LOX IMVI melanoma = system: LOX IMVI melanoma
BT-549 breast = system: BT-549 breast
T-47D breast = system: T-47D breast
SK-MEL-28 melanoma = system: SK-MEL-28 melanoma
MDA-MB-435 = system: MDA-MB-435
CCRF-CEM leukemia = system: CCRF-CEM leukemia
MDA-MB-231 breast = system: MDA-MB-231 breast
HS 578T breast = system: HS 578T breast

## Cc1ccc(S(=O)(=O)NC2(C=O)CCC(C(C)(C)C)CC2)cc1 (centres undefined)
RXF 393 renal
  TGI: > 100 µM
HCC-2998 colon
  TGI: > 100 µM
MOLT-4 leukemia
  TGI: 41.3 µM
NCI-H23 lung
  TGI: 85.6 µM
CAKI-1 renal
  TGI: > 100 µM
SK-MEL-2 melanoma
  TGI: > 100 µM
SNB-19 CNS
  TGI: > 100 µM
XF 498 CNS
  TGI: > 100 µM
SW-620 colon
  TGI: > 100 µM
OVCAR-8 ovarian
  TGI: > 100 µM
DLD-1 colon
  TGI: > 100 µM
SNB-75 CNS
  TGI: > 100 µM
SK-MEL-5 melanoma
  TGI: 47.2 µM
HCT-15 colon
  TGI: > 100 µM
DMS 114 small cell lung
  TGI: 62.8 µM
SN12C renal
  TGI: 68.7 µM
U251 CNS
  TGI: > 100 µM
M14 melanoma
  TGI: > 100 µM
NCI-H522 lung
  TGI: 54.9 µM
HOP-92 NSCLC
  TGI: 99.8 µM
COLO 205 colon
  TGI: 73.3 µM
M19-MEL melanoma
  TGI: 73.8 µM
OVCAR-4 ovarian
  TGI: > 100 µM
UACC-62 melanoma
  TGI: > 100 µM
HOP-62 NSCLC
  TGI: > 100 µM
IGROV1 ovarian
  TGI: > 100 µM
OVCAR-3 ovarian
  TGI: > 100 µM
RXF-631 renal
  TGI: > 100 µM
RPMI-8226 leukemia
  TGI: 46.3 µM
ACHN renal
  TGI: > 100 µM
786-0 renal
  TGI: > 100 µM
DMS 273 small cell lung
  TGI: > 100 µM
SR leukemia
  TGI: 36.9 µM
NCI-H226 lung
  TGI: > 100 µM
OVCAR-5 ovarian
  TGI: > 100 µM
HOP-18 NSCLC
  TGI: > 100 µM
SNB-78 CNS
  TGI: > 100 µM
A549 NSCLC
  TGI: > 100 µM
EKVX NSCLC
  TGI: > 100 µM
SF-295 CNS
  TGI: 94.9 µM
HCT-116 colon
  TGI: 68.8 µM
HL-60(TB) leukemia
  TGI: 42.9 µM
HT29 colon
  TGI: > 100 µM
K-562 leukemia
  TGI: 70.8 µM
SF-268 CNS
  TGI: > 100 µM
A498 renal
  TGI: > 100 µM
KM12 colon
  TGI: 84.5 µM
UACC-257 melanoma
  TGI: > 100 µM
LXFL 529 NSCLC
  TGI: > 100 µM
KM20L2 colon
  TGI: 75.4 µM
MALME-3M melanoma
  TGI: > 100 µM
SK-OV-3 ovarian
  TGI: > 100 µM
TK-10 renal
  TGI: > 100 µM
UO-31 renal
  TGI: > 100 µM
SF-539 CNS
  TGI: > 100 µM
NCI-H460 lung
  TGI: > 100 µM

## CC[N+]1(C)CCC(O)(/C=C/c2ccccc2)C(C(=O)/C=C/c2ccccc2)C1 (centres undefined)
RXF 393 renal
  TGI: 19.7 µM
HCC-2998 colon
  TGI: 30.8 µM
MOLT-4 leukemia
  TGI: 7.11 µM
NCI-H23 lung
  TGI: 35 µM
CAKI-1 renal
  TGI: 3.42 µM
SK-MEL-2 melanoma
  TGI: 39.5 µM
SNB-19 CNS
  TGI: 29.7 µM
MDA-N
  TGI: 23.7 µM
XF 498 CNS
  TGI: 26.7 µM
SW-620 colon
  TGI: 6.45 µM
OVCAR-8 ovarian
  TGI: 43 µM
DLD-1 colon
  TGI: 37.3 µM
SNB-75 CNS
  TGI: 34.7 µM
SK-MEL-5 melanoma
  TGI: 32.7 µM
HCT-15 colon
  TGI: 15.5 µM
NCI/ADR-RES ovarian
  TGI: > 100 µM
DMS 114 small cell lung
  TGI: 16.9 µM
SN12C renal
  TGI: 18 µM
U251 CNS
  TGI: 22.5 µM
M14 melanoma
  TGI: 25.8 µM
PC-3 prostate
  TGI: 29.6 µM
NCI-H522 lung
  TGI: 3.78 µM
DU-145 prostate
  TGI: 39.1 µM
HOP-92 NSCLC
  TGI: 31.4 µM
COLO 205 colon
  TGI: 8.19 µM
MCF7 breast
  TGI: > 23.7 µM
M19-MEL melanoma
  TGI: 27.3 µM
OVCAR-4 ovarian
  TGI: 43.7 µM
LOX IMVI melanoma
  TGI: 7.79 µM
UACC-62 melanoma
  TGI: 33.4 µM
BT-549 breast
  TGI: 34.5 µM
HOP-62 NSCLC
  TGI: 35.5 µM
IGROV1 ovarian
  TGI: 37.9 µM
OVCAR-3 ovarian
  TGI: 28 µM
T-47D breast
  TGI: 40.4 µM
RPMI-8226 leukemia
  TGI: 5.76 µM
ACHN renal
  TGI: 25.4 µM
786-0 renal
  TGI: 13.9 µM
DMS 273 small cell lung
  TGI: 47.3 µM
SK-MEL-28 melanoma
  TGI: 18.9 µM
SR leukemia
  TGI: 6.68 µM
NCI-H226 lung
  TGI: 29.7 µM
OVCAR-5 ovarian
  TGI: 36.1 µM
HOP-18 NSCLC
  TGI: 31.3 µM
SNB-78 CNS
  TGI: > 78.7 µM
MDA-MB-435
  TGI: 31.7 µM
A549 NSCLC
  TGI: 45.7 µM
CCRF-CEM leukemia
  TGI: 10.8 µM
EKVX NSCLC
  TGI: 51.6 µM
SF-295 CNS
  TGI: 33.4 µM
HCT-116 colon
  TGI: 38 µM
MDA-MB-231 breast
  TGI: 31 µM
HL-60(TB) leukemia
  TGI: 8.48 µM
HT29 colon
  TGI: 27.5 µM
K-562 leukemia
  TGI: 10.8 µM
SF-268 CNS
  TGI: 60.5 µM
A498 renal
  TGI: 38.9 µM
HS 578T breast
  TGI: > 100 µM
KM12 colon
  TGI: 10.2 µM
UACC-257 melanoma
  TGI: 24.8 µM
LXFL 529 NSCLC
  TGI: 6.7 µM
KM20L2 colon
  TGI: 49.3 µM
MALME-3M melanoma
  TGI: 26.9 µM
SK-OV-3 ovarian
  TGI: 32.9 µM
TK-10 renal
  TGI: 18.3 µM
UO-31 renal
  TGI: 29.5 µM
SF-539 CNS
  TGI: 19 µM
NCI-H460 lung
  TGI: 43.5 µM

## Cc1cccc2ns[s+]c12
HCC-2998 colon
  TGI: > 100 µM
MOLT-4 leukemia
  TGI: > 100 µM
NCI-H23 lung
  TGI: > 100 µM
CAKI-1 renal
  TGI: > 100 µM
SNB-19 CNS
  TGI: > 100 µM
SW-620 colon
  TGI: 32.7 µM
OVCAR-8 ovarian
  TGI: > 100 µM
DLD-1 colon
  TGI: > 100 µM
SNB-75 CNS
  TGI: > 100 µM
SK-MEL-5 melanoma
  TGI: > 100 µM
HCT-15 colon
  TGI: 39.3 µM
DMS 114 small cell lung
  TGI: 58.1 µM
SN12C renal
  TGI: > 100 µM
U251 CNS
  TGI: > 100 µM
M14 melanoma
  TGI: > 100 µM
HOP-92 NSCLC
  TGI: > 100 µM
COLO 205 colon
  TGI: > 100 µM
OVCAR-4 ovarian
  TGI: > 100 µM
UACC-62 melanoma
  TGI: > 100 µM
HOP-62 NSCLC
  TGI: > 100 µM
IGROV1 ovarian
  TGI: > 100 µM
OVCAR-3 ovarian
  TGI: > 100 µM
RPMI-8226 leukemia
  TGI: > 100 µM
ACHN renal
  TGI: > 100 µM
DMS 273 small cell lung
  TGI: > 100 µM
SK-MEL-28 melanoma
  TGI: > 100 µM
NCI-H226 lung
  TGI: > 100 µM
OVCAR-5 ovarian
  TGI: > 100 µM
HOP-18 NSCLC
  TGI: > 100 µM
SNB-78 CNS
  TGI: > 100 µM
A549 NSCLC
  TGI: > 100 µM
CCRF-CEM leukemia
  TGI: > 100 µM
EKVX NSCLC
  TGI: > 100 µM
SF-295 CNS
  TGI: > 100 µM
HCT-116 colon
  TGI: 37.7 µM
HL-60(TB) leukemia
  TGI: > 100 µM
HT29 colon
  TGI: > 100 µM
K-562 leukemia
  TGI: 81.4 µM
SF-268 CNS
  TGI: > 100 µM
A498 renal
  TGI: > 100 µM
KM12 colon
  TGI: > 100 µM
UACC-257 melanoma
  TGI: > 100 µM
LXFL 529 NSCLC
  TGI: > 100 µM
KM20L2 colon
  TGI: > 100 µM
MALME-3M melanoma
  TGI: > 100 µM
SK-OV-3 ovarian
  TGI: > 100 µM
TK-10 renal
  TGI: > 100 µM
UO-31 renal
  TGI: > 100 µM
SF-539 CNS
  TGI: > 100 µM
NCI-H460 lung
  TGI: > 100 µM
